For this test, the system named is NF-κB activation. In words: Inhibitory activity against NF-κB activation, luciferase reporter assay under TNF-α stimulation. Format: cell-based, human. The note with it: HepG2 cells, TNF-α 40 ng/ml, 4 hours; for inhibition at 1 µg/mL / inhibition at 10 µg/mL: Homo sapiens, read-out: Inhibitory Ratio of NF-κ B Activation(%). How it is done:
Inhibitory activity against NF-κB activation was measured by referring to the method of Hill et al. (Cell, (USA), in 1993, Vol. 73, No. 2, p. 395-406). Using a transfection reagent(Effectene; QIAGEN), the human hepatoma cell strain HepG2 was transfected with a plasmid (pNFκ Luc Reporter Plasmid; STRATAGENE) integrated with an oligonucleotide having five tandem copies of NF-κB binding sequences(TGGGGACTTTCCGC) on a upstream region of firefly luciferase gene (Luc) according to the QIAGEN's protocol, and the cells were incubated for 6 to 24 hours. Then the cells were cultured for 4 hours after the addition of TNF-α (40 ng/ml) in the presence of a test compound, and intracellular luciferase activity was measured by using PicaGene LT (TOYO INK MFG Co., Ltd.) and a chemical luminescence measurement apparatus(SPECTRAFluor Plus; TECAN). The inhibitory ratio was measured as a ratio relative to a value of the luciferase activity in the absence of the test compound.

The structures appear in SMILES notation. Structures can show the parent of a compound that is named as a salt. Bounds are passed on as bounds.

Turning to `O=C(O)CNC(=O)Oc1ccc(Cl)cc1C(=O)Nc1cc(C(F)(F)F)cc(C(F)(F)F)c1` [Compound 57, 2-[N-(carboxymethyl)carbamoyl]oxy-5-chloro-N-[3,5-bis(trifluoromethyl)phenyl]-benzamide], the inhibition at 1 µg/mL (Drug Concentration 1 μg/mL) was 95.4%. Besides, the inhibition at 10 µg/mL (Drug Concentration 10 μg/mL) turned out to be 97.2%. For the molecule `CC(C)S(=O)(=O)Oc1ccc(Cl)cc1C(=O)Nc1cc(C(F)(F)F)cc(C(F)(F)F)c1` [Compound 46], the “Inhibitory Ratio of NF-κ B Activation(%)” value worked out at 89.5% (Drug Concentration 1 μg/mL) and 96.3% (Drug Concentration 10 μg/mL). As for `CC(C)(C)OC(=O)NCC(=O)Oc1ccc(Cl)cc1C(=O)Nc1cc(C(F)(F)F)cc(C(F)(F)F)c1` [Compound 22, 2-[N-(tert-butoxycarbonyl)glycyl]oxy-5-chloro-N-[3,5-bis(trifluoromethyl)phenyl]-benzamide], where the note is “Drug Concentration 1 μg/mL”, the inhibition at 1 µg/mL amounted to 35.3%. The inhibition at 10 µg/mL (Drug Concentration 10 μg/mL) turned out to be 98.7%. Consider `O=C(Cc1ccccc1)Oc1ccc(Cl)cc1C(=O)Nc1cc(C(F)(F)F)cc(C(F)(F)F)c1` [Compound 8], for which the “Inhibitory Ratio of NF-κ B Activation(%)” value (Drug Concentration 1 μg/mL) amounted to 95.0% and the “Inhibitory Ratio of NF-κ B Activation(%)” value (Drug Concentration 10 μg/mL) is listed as 97.9%. Taken in the same sequence, the figures for `CC(C)(C)OC(=O)C[C@H](NC(=O)OC(C)(C)C)C(=O)Oc1ccc(Cl)cc1C(=O)Nc1cc(C(F)(F)F)cc(C(F)(F)F)c1` [Compound 30] were 96.4% and 97.0%. `CC(C)C[C@H](N)C(=O)N[C@@H](Cc1ccccc1)C(=O)Oc1ccc(Cl)cc1C(=O)Nc1cc(C(F)(F)F)cc(C(F)(F)F)c1` [Compound 41, 5-Chloro-2-[N-(L-leucyl)-L-phenylalanyl]oxy-N-[3,5-bis(trifluoromethyl)phenyl]-benzamide hydrochloride]: the inhibition at 1 µg/mL (Drug Concentration 1 μg/mL) was 91.4%. For the same molecule, where the note is “Drug Concentration 10 μg/mL”, the inhibition at 10 µg/mL turned out to be 99.1%. In the same order, the values of `O=C(Nc1cc(C(F)(F)F)cc(C(F)(F)F)c1)c1cc(Cl)ccc1OP(=O)(O)O` [Compound 51, 5-chloro-2-phosphonooxy-N-[3,5-bis(trifluoromethyl)phenyl]benzamide] are 89.7% and 96.6%. As to `CC(C)C[C@H](NC(=O)[C@H](CC(=O)OC(C)(C)C)NC(=O)OC(C)(C)C)C(=O)Oc1ccc(Cl)cc1C(=O)Nc1cc(C(F)(F)F)cc(C(F)(F)F)c1` [Compound 37, 2-{N-[N-(tert-butoxycarbonyl)-β-O-(tert-butyl)-α-L-aspartyl]-L-leucyl}oxy-5-chloro-N-[3,5-bis(trifluoromethyl)phenyl]benzamide], the “Inhibitory Ratio of NF-κ B Activation(%)” value by setting is: (Drug Concentration 1 μg/mL) 96.6%; (Drug Concentration 10 μg/mL) 98.1%. For the molecule `COc1cc(NC(=O)c2cc(Br)ccc2OC(=O)N2CCOCC2)cc(C(F)(F)F)c1` [Compound 87, 5-Bromo-N-[3-methoxy-5-(trifluoromethyl)phenyl]-2-[(morpholinocarbonyl)oxy]-benzamide], the inhibition at 1 µg/mL (Drug Concentration 1 μg/mL) is 29.7%. Besides, the inhibition at 10 µg/mL (Drug Concentration 10 μg/mL) turned out to be 55.4%.

As to `O=C(Nc1cc(Cl)cc(Cl)c1)c1cc(Cl)ccc1OC(=O)N1CCOCC1` [Compound 89, 5-Chloro-N-(3,5-dichlorophenyl)-2-[(morpholinocarbonyl)oxy]benzamide], for the setting “Drug Concentration 1 μg/mL”, the inhibition at 1 µg/mL came to 48.3%. Further, for the setting “Drug Concentration 10 μg/mL”, the inhibition at 10 µg/mL stood at 35.9%. For `O=C(O)COc1ccc(Cl)cc1C(=O)Nc1cc(C(F)(F)F)cc(C(F)(F)F)c1` [Compound 109], the “Inhibitory Ratio of NF-κ B Activation(%)” value is, setting by setting: (Drug Concentration 1 μg/mL) 21.0%; (Drug Concentration 10 μg/mL) 95.9%.

With `CCC(C)(C)c1ccc(Oc2ccccc2)c(-n2c(=O)oc3ccc(Cl)cc3c2=O)c1` [Compound 118, 6-Chloro-3-[5-(1,1-dimethyl)propyl-2-phenoxyphenyl]-3,4-dihydro-2H-1,3-benzoxazine-2,4-dione], for the setting “Drug Concentration 1 μg/mL”, the inhibition at 1 µg/mL is 94%. The inhibition at 10 µg/mL (Drug Concentration 10 μg/mL) stood at 97.4%. On to `CC(C)C[C@H](N)C(=O)Oc1ccc(Cl)cc1C(=O)Nc1cc(C(F)(F)F)cc(C(F)(F)F)c1.Cl` [Compound 27], for which the “Inhibitory Ratio of NF-κ B Activation(%)” value runs as follows: (Drug Concentration 1 μg/mL) 95.8%; (Drug Concentration 10 μg/mL) 99.2%. Taken in the same sequence, the figures for `CC(C)C[C@H](NC(=O)[C@@H](N)Cc1ccccc1)C(=O)Oc1ccc(Cl)cc1C(=O)Nc1cc(C(F)(F)F)cc(C(F)(F)F)c1.Cl` [Compound 36] were 97.8% and 98.7%.

In the case of `O=C(COc1cccc(Cl)c1Cl)Oc1ccc(Cl)cc1C(=O)Nc1cc(C(F)(F)F)cc(C(F)(F)F)c1` [Compound 14], the “Inhibitory Ratio of NF-κ B Activation(%)” value by setting is: (Drug Concentration 1 μg/mL) 98.9%; (Drug Concentration 10 μg/mL) 99.4%. Consider `CC(C)(C)C(=O)Oc1ccc(Cl)cc1C(=O)Nc1cc(C(F)(F)F)cc(C(F)(F)F)c1` [Compound 1, 5-Chloro-2-pivaloyloxy-N-[3,5-bis(trifluoromethyl)phenyl]benzamide], for which the inhibition at 1 µg/mL (Drug Concentration 1 μg/mL) came out at 94.9%. For the same molecule, where the note is “Drug Concentration 10 μg/mL”, the inhibition at 10 µg/mL was determined as 95.8%. With `O=C(Nc1cc(C(F)(F)F)ccc1Cl)c1cc(Br)ccc1OC(=O)N1CCOCC1` [Compound 85, 5-Bromo-N-[2-chloro-5-(trifluoromethyl)phenyl]-2-[(morpholinocarbonyl)oxy]-benzamide], for the setting “Drug Concentration 1 μg/mL”, the inhibition at 1 µg/mL was 21.4%. Besides, the inhibition at 10 µg/mL (Drug Concentration 10 μg/mL) came to 29.8%. On to `COC(=O)Oc1ccc(Cl)cc1C(=O)Nc1cc(C(F)(F)F)cc(C(F)(F)F)c1` [Compound 43, 5-Chloro-2-(methoxycarbonyl)oxy-N-[3,5-bis(trifluoromethyl)phenyl]benzamide], for which, for the setting “Drug Concentration 1 μg/mL”, the inhibition at 1 µg/mL turned out to be 94.9%. Moreover, where the note is “Drug Concentration 10 μg/mL”, the inhibition at 10 µg/mL was 97.6%. On to `CC(C)[C@H](N)C(=O)Oc1ccc(Cl)cc1C(=O)Nc1cc(C(F)(F)F)cc(C(F)(F)F)c1.Cl` [Compound 25], for which the “Inhibitory Ratio of NF-κ B Activation(%)” value is 93.4% (Drug Concentration 1 μg/mL) and 97.2% (Drug Concentration 10 μg/mL). As to `N[C@@H](CC(=O)O)C(=O)N[C@@H](Cc1ccccc1)C(=O)Oc1ccc(Cl)cc1C(=O)Nc1cc(C(F)(F)F)cc(C(F)(F)F)c1` [Compound 42, 2-[N-(α-L-aspartyl)-L-phenylalanyl]oxy-5-chloro-N-[3,5-bis(trifluoromethyl)-phenyl]benzamide hydrochloride], the inhibition at 1 µg/mL (Drug Concentration 1 μg/mL) stood at 92.7%. For the same molecule, the inhibition at 10 µg/mL (Drug Concentration 10 μg/mL) was found to be 96.9%. Taken in the same sequence, the figures for `O=C(Nc1cc(C(F)(F)F)cc(C(F)(F)F)c1)c1cc(Cl)ccc1OP(=O)(OCc1ccccc1)OCc1ccccc1` [Compound 50, 5-chloro-2-(dibenzylphosphono)oxy-N-[3,5-bis(trifluoromethyl)phenyl]benzamide] were 90.7% and 97.1%. Take `CC(C)(C)OC(=O)N[C@@H](Cc1ccccc1)C(=O)Oc1ccc(Cl)cc1C(=O)Nc1cc(C(F)(F)F)cc(C(F)(F)F)c1` [Compound 28, 2-[N-(tert-butoxycarbonyl)-L-phenylalanyl]oxy-5-chloro-N-[3,5-bis(trifluoromethyl)-phenyl]benzamide]: the inhibition at 1 µg/mL (Drug Concentration 1 μg/mL) was found to be 96.4%. Further, the inhibition at 10 µg/mL (Drug Concentration 10 μg/mL) was found to be 98.4%.

As for `O=C(Oc1ccccc1C(=O)Nc1cc(C(F)(F)F)ccc1C(F)(F)F)c1ccccc1O` [Compound 131], the “Inhibitory Ratio of NF-κ B Activation(%)” value (Drug Concentration 1 μg/mL) is recorded as over 99.9%.
